Measured values: PMC9540667, “Novel insights on [1,2]oxazolo[5,4‐e]isoindoles on multidrug resistant acute myeloid leukemia cell line” (Drug Development Research, 2022)
Read-outs that look alike come from different tables or passages of the source.

Assays:
HL‐60 cells = experiment: Cell growth assay (MTS), HL-60 cells; type: cell-based; settings: mean ± SE
Method: (§1) HL‐60 cells were obtained from ATCC® (CCL‐240), whereas its variant HL‐60R was selected for MDR by exposure to gradually increasing concentrations of doxorubicin. MCF‐7 cells were obtained from ATCC® (HTB‐22). The nontumorigenic cell lines hTERT‐RPE‐1 (ATCC, CRL‐4010) and 1‐7HB2 (ECACC 10081201‐Cancer Research Technology) was kindly provided by Prof. Patrizia Cancemi and Prof. Giulio Ghersi (STEBICEF Department, University of Palermo, Italy), respectively. Cells were cultured in a humidified atmosphere at 37°C in 5% CO2. After obtaining the cells, the first passage carried out was assigned passage number 1. Cells with a narrow range of passage number […] were routinely tested for Mycoplasma contamination and were used for all experiments. HL‐60 and HL‐60R cells were cultured in Roswell Park Memorial Institute (RPMI) 1640, while MCF‐7, hTERT‐RPE‐1, and 1‐7HB‐2 cells were cultured in Dulbecco's Modified Eagle Medium (DMEM) (HyClone Europe Ltd.) low glucose, in particular only for 1‐7HB‐2 cells supplemented with hydrocortisone (5 μg/ml) and insulin (10 μg/ml). All media were supplemented with 10% heat‐inactivated fetal calf serum, 2 mM L‐glutamine, 100 U/ml penicillin, and 100 μg/ml streptomycin (all reagents were from EuroClone S.p.A.; GE Healthcare Life Sciences).
(§2) Cells were seeded at 5 × 10^3 cells/well onto 96 well plates and incubated overnight at 37°C. At time 0, the medium was replaced with fresh complete medium supplemented with the [1,2]oxazolo[5,4‐e]isoindoles at large concentrations range. Following 72 h of treatment, 15 µl commercial solution obtained from Promega Corp. containing 3‐(4,5‐dimethylthiazol‐2‐yl)−5‐(3‐carboxymethoxyphenyl)−2‐(4‐sulphophenyl)−2H‐tetrazolium (MTS) and phenazine ethosulfate was added. The plates were incubated in a humidified atmosphere at 37°C in 5% CO2 for 2 h, and the bioreduction of MTS dye was evaluated by measuring the absorbance of each well at 490 nm using a microplate absorbance reader (iMark Microplate Reader; Bio‐Rad Laboratories, Inc.). Cell growth inhibition was expressed as a percentage of the absorbance of the control cells. Data were expressed as mean ± standard error (SE) of at least three different experiments performed in triplicate.

MCF‐7 cells = experiment: Cell growth assay (MTS), MCF-7 breast cancer cells; type: cell-based; settings: the maximum concentration used in the MTS assay is reported
Method: as §1, §2

HL‐60R cells [1] = experiment: Cell growth assay (MTS), HL-60R MDR variant; type: cell-based; settings: 72 h of treatment, mean ± SE
Method: as §1, §2

hTERT‐RPE‐1 cells = experiment: Cell growth assay (MTS), non-tumorigenic hTERT-RPE-1 cells; type: cell-based; settings: the maximum concentration used in the MTS assay is reported, read-out: h‐TERT‐RPE‐1 (IC50)
Method: as §1, §2

1‐7HB2 cells = experiment: Cell growth assay (MTS), non-tumorigenic 1-7HB2 cells; type: cell-based; settings: 72 h, the maximum concentration used in the MTS assay is reported
Method: as §1, §2

HL‐60R cells [2] = experiment: Viable cell count with Trypan blue exclusion test (cotreatments); type: cell-based; settings: for synergistic / potentiation effect with the reference drugs (VIN or PTX): cotreatment at sub-cytotoxic concentrations
Method: Potentiation or synergism due to cotreatments were evaluated by viable cell count with Trypan blue exclusion test. Data were expressed as mean ± SE of at least three different experiments performed in duplicate.

[3] = target: T1, recombinant human P‐gp membranes (Homo sapiens, UniProt P08183); experiment: P-gp ATPase activity (Pgp-Glo assay); type: biochemical; settings: compound at its IC50; verapamil 0.5 mM
T1 construct: purchased Promega
Method: P‐gp ATPase activity was performed with Pgp‐Glo™ Assay Systems (Promega) following manufacturer's instructions. The compounds 4e and 4k, at their IC50s (test compound [TC]) were added to a 96‐well white plate in duplicate and incubated with recombinant human P‐gp membranes. The compound Na3VO4 (0.25 mM) was used as the selective inhibitor of P‐gp ATPase activity while negative control (no treatment [NT]) with only Pgp‐GLO assay buffer was used to provide a measure of unregulated ATPase activity. Verapamil (0.5 mM) is a P‐gp substrate that stimulates P‐gp ATPase activity and represents the positive control for drug stimulation of P‐gp ATPase activity. In fact, it is not a pure inhibitor of P‐gp function as well as Na3VO4, but in association with another P‐gp substrate like doxorubicin, it behaves as a competitive antagonist, that is, an efflux inhibitor. […]
Luminescence was measured using a GLOMAX Multidetection System (Promega). The data were presented as change in luminescence (ΔRLU), calculated as follows: ΔRLUbasal is the difference between the average luminescent signals from Na3VO4‐treated samples (RLUNa3VO4) and untreated (NT) samples (RLUNT), ΔRLUTC that reflects P‐gp ATPase activity in the presence of the test compounds, is the difference between the average luminescent signals from Na3VO4‐treated samples (RLUNa3VO4) and test compound‐treated samples (RLUTC).

tubulin in HL‐60R cells = experiment: Tubulin polymerization assay (soluble/polymerized fraction, western blot), HL-60R; type: cell-based; settings: 24 h at the IC50 at 72 h
Method: (§3) To separate cytosolic and cytoskeletal‐associated proteins, cells were rinsed in PEM buffer (0.1 M PIPES, pH 6.94; 2 mM EGTA; 1 mM MgCl2; 10% glycerol; 1 µM protease inhibitors cocktail; 0.5% Nonidet NP‐40), lysed at room temperature for 10 min with the same buffer (200 µl). After centrifugation (14,000 rpm at 4°C for 10 min), the soluble fraction (supernatant) was separated from polymerized fraction (pellet); the latter was resuspended in the same buffer (200 µl).
(§4) Both the fractions were then diluted 3:1 with 4 × SDS‐PAGE sample buffer. Proteins were separated by SDS‐PAGE, and tubulin distribution was analyzed by immunoblotting using anti‐α‐tubulin antibody (Sigma‐Aldrich). Hybridization was visualized using an enhanced chemiluminescence detection kit (SuperSignal West Femto Maximum Sensitivity Substrate, Thermo Scientific Life Technologies Italia) and the Versa DOC imaging system (BioRad Laboratories).

tubulin in HL‐60 cells = experiment: Tubulin polymerization assay (soluble/polymerized fraction, western blot), HL-60; type: cell-based; settings: HL-60, 24 h at the IC50 at 72 h
Method: as §3, §4

[4] = tested on: XIAP, IAP‐1, Bcl‐2 in HL‐60R cells; experiment: Western blot of antiapoptotic factors (survivin, XIAP, IAP-1, Bcl-2); type: cell-based; settings: co-treatment of 4k and PTX
Method: Whole‐cell lysates were obtained from HL‐60R cells using RIPA buffer (Santa Cruz Biotechnology Inc.) and 25 µg protein was subjected to 10% SDS‐PAGE and transferred to nitrocellulose membrane (Amersham, Pharmacia Biotech) using a semi‐dry fast blot apparatus (Bio‐Rad). Membranes were blocked with 5% (w/v) BSA in PBS‐0.1% (v/v) Tween 20 for 1 h and then filters were incubated with primary antibodies raised against GAPDH (1:20,000; Sigma‐Aldrich Srl Milan), XIAP (1:500; Cell Signaling Technology, Inc), survivin (1:2000; Abcam Limited), Bcl‐2 (1:1000; Santa Cruz Biotechnology Inc.) and IAP‐1 (1:1000; Cell Signaling Technology, Inc). Hybridization was visualized using an enhanced chemiluminescence detection kit (SuperSignal West Femto Maximum Sensitivity Substrate, Thermo Scientific Life Technologies Italia) and the Versa DOC imaging system (BioRad Laboratories). Immunoblots were quantified by densitometry measurements after normalization with glyceraldehyde‐3‐phosphate dehydrogenase and results were expressed as fold changes.

HL‐60R cell line = experiment: Intracellular accumulation of doxorubicin (flow cytometry); type: cell-based
Method: The effects of 4e and 4k on intracellular accumulation of doxorubicin were evaluated in the HL‐60R cell line. […] After 24 h of incubation doxorubicin 2 µM was added for 1 h. The cells were subsequently washed with PBS twice and then resuspended in a final volume of 400 µl of PBS. The fluorescence intensity of doxorubicin was measured by flow cytometry using a FACSAria III instrument (Becton Dickinson).

HL‐60R cells [5] = experiment: Cell death by flow cytometry (propidium iodide, preG0-G1 events); type: cell-based
Method: Cells were collected and washed twice with ice‐cold PBS and then resuspended in a hypotonic fluorochrome solution containing propidium iodide (PI) 50 µg/ml in 0.1% sodium citrate plus 0.03% (v/v) Nonidet P‐40, at 1 × 10^6/ml. After incubation (at least 1 h at 4°C) in this solution, the samples were filtered through nylon cloth, 40 µm mesh, and their fluorescence was analyzed using a FACSCanto instrument (Becton Dickinson). The data were analyzed with BD FACSDiva software v.6.1.2. (Becton Dickinson). Cell death was determined by evaluating the percentage of events accumulated in the preG0‐G1 position.

[6] = Homo sapiens, HL-60, 72 h of treatment

T1 sequence (P08183 whole entry): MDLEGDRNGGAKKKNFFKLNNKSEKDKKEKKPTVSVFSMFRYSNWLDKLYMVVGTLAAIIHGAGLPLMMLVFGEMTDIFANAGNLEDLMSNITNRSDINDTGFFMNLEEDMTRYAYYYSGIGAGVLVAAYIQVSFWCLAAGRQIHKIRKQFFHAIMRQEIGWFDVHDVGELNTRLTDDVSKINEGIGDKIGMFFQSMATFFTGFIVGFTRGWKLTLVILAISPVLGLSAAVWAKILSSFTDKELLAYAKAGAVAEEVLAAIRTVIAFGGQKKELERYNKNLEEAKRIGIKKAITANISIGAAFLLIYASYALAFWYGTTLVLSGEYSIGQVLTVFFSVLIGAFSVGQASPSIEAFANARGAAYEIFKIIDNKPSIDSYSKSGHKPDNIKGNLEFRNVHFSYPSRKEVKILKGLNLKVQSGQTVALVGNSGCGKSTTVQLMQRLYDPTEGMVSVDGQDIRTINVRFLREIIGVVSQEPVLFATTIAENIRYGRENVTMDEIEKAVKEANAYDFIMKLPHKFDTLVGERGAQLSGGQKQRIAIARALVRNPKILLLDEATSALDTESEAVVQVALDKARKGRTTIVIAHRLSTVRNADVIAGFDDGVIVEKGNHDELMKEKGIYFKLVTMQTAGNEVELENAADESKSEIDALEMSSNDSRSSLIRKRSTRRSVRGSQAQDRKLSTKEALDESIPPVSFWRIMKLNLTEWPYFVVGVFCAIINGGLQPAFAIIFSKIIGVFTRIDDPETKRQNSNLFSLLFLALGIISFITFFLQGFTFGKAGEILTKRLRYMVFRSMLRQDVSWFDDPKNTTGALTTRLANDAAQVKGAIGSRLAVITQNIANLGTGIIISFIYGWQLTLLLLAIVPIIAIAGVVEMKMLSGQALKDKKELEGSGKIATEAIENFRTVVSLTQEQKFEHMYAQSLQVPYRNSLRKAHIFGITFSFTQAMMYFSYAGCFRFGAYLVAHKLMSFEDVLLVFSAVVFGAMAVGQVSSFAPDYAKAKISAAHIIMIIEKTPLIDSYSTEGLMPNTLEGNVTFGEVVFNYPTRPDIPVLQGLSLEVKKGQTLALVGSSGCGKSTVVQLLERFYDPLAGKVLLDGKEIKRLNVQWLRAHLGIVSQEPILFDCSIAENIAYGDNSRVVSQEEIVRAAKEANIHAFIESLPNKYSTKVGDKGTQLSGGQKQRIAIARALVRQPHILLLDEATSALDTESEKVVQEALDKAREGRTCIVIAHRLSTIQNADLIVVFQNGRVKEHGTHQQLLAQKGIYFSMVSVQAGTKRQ

IC50 (HL‐60 cells; 72 h of treatment) [nM]	IC50 (MCF‐7 cells; 72 h) [nM]	IC50 (HL‐60R cells [1]) [nM]	IC50 (HL‐60 cells; [6]) [nM]	IC50 (HL‐60R cells [1]; HL60R) [nM]	Compound	IC50 (hTERT‐RPE‐1 cells; 72 h) [nM]	IC50 (1‐7HB2 cells) [nM]	synergistic / potentiation effect with the reference drugs (VIN or PTX) (HL‐60R cells [2])	also measured
2100 ± 400	> 50000	2400 ± 800	–	–	COc1ccccc1Cn1cc2c(c1)-c1oncc1CC2 [4b]	> 20000	> 20000	–	–
–	–	–	3000 ± 250	5500 ± 1400	COc1ccc(Cn2cc3c(c2-c2cc(OC)c(OC)c(OC)c2)CCc2cnoc2-3)cc1OC [4k, 7‐(3,4‐dimethoxybenzyl)−6‐(3,4,5‐trimethoxyphenyl)−5,7‐dihydro‐4H‐[1,2]oxazolo[5,4‐e]isoindole]	–	> 20000	synergistic effect	effect on verapamil‐stimulated P‐gp ATPase activity [3]: significative increase; IC50 (MCF‐7 cells; Homo sapiens, MCF7, 72 h): > 50000 nM; effect on soluble / polymerized tubulin fraction (tubulin in HL‐60R cells): increasing the soluble fraction of tubulin; effect on soluble / polymerized tubulin fraction (tubulin in HL‐60 cells): increasing the soluble fraction of tubulin; protein expression of antiapoptotic factors XIAP, IAP‐1 and Bcl‐2 [4]: substantial protein expression decrease; Fluorescence (%) HL‐60R (HL‐60R cell line; 5.50 µM for 24 h, without doxorubicin): 0.3 ± 0.1%; Fluorescence (%) HL‐60R (intracellular accumulation of doxorubicin) (HL‐60R cell line; pretreated 5.50 µM for 24 h + Doxo 2 µM 1 h): 22.5 ± 1.1 %; IC50 (hTERT‐RPE‐1 cells; hTERT-RPE1, 72 h): > 20000 nM; synergistic effect in induction of cell death (HL‐60R cells [5]; HL-60R, in combination with PTX and VIN): strong synergistic effect
–	> 5000	–	–	–	COc1cc(Cn2cc3c(c2)-c2oncc2CC3)cc(OC)c1OC [4e]	> 100	> 100	not detected any potentiation	Fluorescence (%) HL‐60R (HL‐60R cell line; 0.04 µM for 24 h, without doxorubicin): 0.2 ± 0.07%; Fluorescence (%) HL‐60R (intracellular accumulation of doxorubicin) (HL‐60R cell line; pretreated 0.04 µM for 24 h + Doxo 2 µM 1 h): 8.8 ± 0.3 %
600 ± 10	> 50000	700 ± 90	–	–	COc1ccc(Cn2cc3c(c2)-c2oncc2CC3)cc1OC [4d]	> 5000	> 5000	–	–
1900 ± 900	> 50000	2100 ± 200	–	–	c1ccc(Cn2cc3c(c2)-c2oncc2CC3)cc1 [4a]	> 20000	> 20000	synergistic effect	Cell growth inhibition (%) (HL‐60R cells [2]; 48 h, alone at 1 µM): 2.5 ± 1.8%
–	> 50000	–	–	–	COc1cccc(Cn2cc3c(c2)-c2oncc2CC3)c1 [4c]	> 5000	> 5000	synergistic effect	Cell growth inhibition (%) (HL‐60R cells [2]; 48 h, alone at 0.2 µM): 42.5 ± 0.3%

More lines, now with the values behind:

Compound	IC50 (HL‐60 cells; 72 h of treatment) [nM]	IC50 (MCF‐7 cells; 72 h) [nM]	IC50 (HL‐60R cells [1]) [nM]	IC50 (HL‐60 cells; [6]) [nM]	IC50 (HL‐60R cells [1]; HL60R) [nM]	IC50 (hTERT‐RPE‐1 cells; 72 h) [nM]	IC50 (1‐7HB2 cells) [nM]	synergistic / potentiation effect with the reference drugs (VIN or PTX) (HL‐60R cells [2])	also measured
COc1cccc2c1C(=O)c1c(O)c3c(c(O)c1C2=O)C[C@@](O)(C(=O)CO)C[C@@H]3O[C@H]1C[C@H](N)[C@H](O)[C@H](C)O1 [Doxorubicin, doxorubicin, reference compound]	–	–	–	–	–	–	–	–	Fluorescence (%) HL‐60R (HL‐60R cell line; Doxo 2 µM 1 h alone): 4.4%; Fluorescence (%) HL‐60R (HL‐60R cell line; Doxo 2 µM 1 h alone, listed as Doxo): 4.4 ± 0.3%
CC(=O)O[C@H]1C(=O)[C@@]2(C)[C@H]([C@H](OC(=O)c3ccccc3)[C@]3(O)C[C@H](OC(=O)[C@H](O)[C@@H](NC(=O)c4ccccc4)c4ccccc4)C(C)=C1C3(C)C)[C@]1(OC(C)=O)CO[C@@H]1C[C@@H]2O [Paclitaxel, reference compound]	–	–	–	20 ± 40	1300 ± 140	–	–	–	inhibition at 1 µM (HL‐60R cells [2]; HL60R, 48 h, alone at 1 µM, read-out: Cell growth inhibition (%)): 13 ± 9.2%; effect on soluble / polymerized tubulin fraction (tubulin in HL‐60R cells): marked increase in the polymerized fraction; effect on soluble / polymerized tubulin fraction (tubulin in HL‐60 cells): marked increase in the polymerized fraction; Percentage of events accumulated in the pre G0‐G1 position (cell death) (HL‐60R cells [5]; 48 h, 1 µM): 7.6%
CC[C@]1(O)C[C@@H]2CN(CCc3c([nH]c4ccccc34)[C@@](C(=O)OC)(c3cc4c(cc3OC)N(C)[C@H]3[C@@](O)(C(=O)OC)[C@H](OC(C)=O)[C@]5(CC)C=CCN6CC[C@]43[C@@H]65)C2)C1 [Vinblastine, reference compound]	–	–	–	50	820 ± 20	–	–	–	inhibition at 0.3 µM (HL‐60R cells [2]; HL60R, 48 h, alone at 0.3 µM, read-out: Cell growth inhibition (%)): 0%
COc1ccc(CCN(C)CCCC(C#N)(c2ccc(OC)c(OC)c2)C(C)C)cc1OC (stereo not drawn) [Verapamil, reference compound]	–	–	–	–	–	–	–	–	Fluorescence (%) HL‐60R (HL‐60R cell line; 10 µM for 24 h, without doxorubicin): 0.3 ± 0.1%; Fluorescence (%) HL‐60R (intracellular accumulation of doxorubicin) (HL‐60R cell line; pretreated 10 µM for 24 h + Doxo 2 µM 1 h): 58.5 ± 2.5 %
